# Results published in patent US20070060655A1, “Use of agomelatine in obtaining medicaments intended for the treatment of sleep disorders in the depressed patient” (LES LABORATOIRES SERVIER, priority 2005, published 2007).
# Experiments:
# Assay type in all cases: in vivo, human
# [1] = system: sleep disorders in the depressed patient; assay: double-blind clinical study over 6 weeks in comparison with mirtazapine, polysomnographic recording of sleep; conditions: 6 weeks of treatment
# Excerpt: The action specific to agomelatine on sleep disorders in the depressed patient is established in comparison with mirtazapine. This study, carried out as a double-blind over 6 weeks of treatment, has, as its principal criterion of efficacy, the polysomnographic recording of sleep. The Hamilton Scale of Depression allows the antidepressant efficacy to be documented.
# [2] = system: patients with a characterised depressive state; assay: double-blind clinical study over 6 weeks compared with venlafaxine (Hamilton Scale of Depression, Leeds Sleep Evaluation Questionnaire)
# Procedure: Another study evaluating sleep improvement was carried out in patients with a characterised depressive state as a double blind over 6 weeks compared with venlafaxine. After one week placebo, 332 patients were randomised: 165 received 25 mg/day of agomelatine and 167 received 75 mg/day of venlafaxine for 2 weeks. After 2 weeks of treatment, if clinical improvements obtained were found insufficient, the doses for some patients were doubled to 50 mg/day of agomelatine or 150 mg/day of venlafaxine for the following weeks.
# [3] = system: patients with a characterised depressive state; assay: pilot study of sleep polysomnographic parameters in 15 patients; conditions: agomelatine 25 mg; polysomnography
# Procedure: Lastly, effects of agomelatine on the sleep polysomnographic parameters were evaluated in a pilot study carried out in 15 patients with a characterised depressive state. […] Furthermore, agomelatine increase the total duration of sleep, reduce the number of nocturnal wakenings, and as a consequence improve sleep efficacy.
# [4] = versus venlafaxine, p less than or equal to 0.001
structure (smiles),measurement,setting,value
"COc1ccc2cccc(CCNC(C)=O)c2c1 [agomelatine, N-[2-(7-methoxy-1-naphthyl)ethyl]acetamide]",efficacy in the treatment of sleep disorders in the depressed patient (polysomnographic recording of sleep),[1],especially effective
same,antidepressant efficacy (Hamilton Scale of Depression),"[2]; agomelatine 25 mg/day (up to 50 mg/day) versus venlafaxine 75 mg/day (up to 150 mg/day), 6 weeks",comparable efficacy of agomelatine versus venlafaxine
same,"""sensation of well-being""",[2]; [4],equally significant improvement
same,"""sleepiness during the day""",[2]; [4],equally significant improvement
same,"LSEQ item ""quality of sleep"" (QOS)","[2]; versus venlafaxine, p=0.015",appreciably greater efficacy
same,"LSEQ item ""ease of getting to sleep"" (GTS)","[2]; versus venlafaxine, significant difference from the first week (p=0.007), continuing during the 6 weeks",more important and faster to appear than for venlafaxine
same,REM (rapid eye movements) sleep,[3],without alteration
same,absolute and relative durations of cycles 3 and 4 of the recording of the electroencephalographic activity,[3],significantly improved
same,number of nocturnal wakenings,[3],reduce
same,onset of the beneficial effects on sleep,[3],from the first week of treatment
same,sleep efficacy,[3],improve
same,sleep physiological structure,[3],Restoration of the sleep physiological structure was observed
same,total duration of sleep,[3],increase
